The structures appear in SMILES notation. Where a name gives a salt, the structure may show the parent alone.

In experiment [1] the test system is mice with T9 contusion type of injury. Kind of experiment: FluoroMyelin Green staining and white matter sparing analysis. Type of experiment: in vivo. Particulars: 42 dpi; at lesion epicentre and over 700 μm rostrally and caudally, vs Vehicle. The method, then: (§1) A moderate-severe contusion-type of injury was performed on adult C57BL/6 female mice (10-12 weeks) with an Infinite Horizon Impactor (PSI)^30. All surgeries were performed under aseptic conditions. Briefly, under deep anesthesia with Ketamine and Xylazine (120 mg/kg and 16 mg/kg respectively, i.p.) mice received a dorsal laminectomy at the level of 9th thoracic vertebra (T9). After securing the lateral processes of the 8th thoracic vertebra (T8) and 10th thoracic vertebra (T10) with a stainless-steel impactor tip, a controlled force-defined impact at 75 kdyne was delivered to the exposed spinal cord^28,30. Then, muscle and skin were closed with 4.0 polyglycolic acid (PGA) absorbable sutures (Safil, G1048213). […] Weight was monitored daily until 15 days-post-injury (dpi) and then weekly for the duration of the study and a high caloric pellet (Supreme Mini-Treats™ S05478 and S05472) was provided as a dietary supplement since a 10% weight loss was typically observed in this SCI model upon injury. […]
To quantify demyelination, one set of sections spaced 100 μm apart and spanning the entire block was stained with FluoroMyelin™ Green (ThermoFisher Scientific, F34651) for 1 hour. Z-stack compositions were acquired in a motorized inverted widefield fluorescence microscope (Zeiss Cell Observer, Carl Zeiss MicroImaging) with 10× magnification. […]

Experiment [2] has the same test system. Kind of experiment: fibrotic scar quantification (PDGFRβ / GFAP immunohistochemistry). Type of experiment: in vivo. Particulars: 42 dpi, vs Vehicle. How it is done: as §1, with “G1048213). In this study, mice were excluded when the actual displacement value was outside the interval 500-700 μm or if the actual force after impact was >2SD 75 Kdyne. Immediately after injury, mice were injected subcutaneously with 0.5 ml of sterile saline and then daily for 5 days.” for “G1048213).”
For immunohistochemistry in sections, OCT was removed from the cryosections using PBS (30 minutes). […] For activated microglia quantification, sections were counterstained with DAPI. […]
One set of sections was stained with anti-PDGFRβ and anti-GFAP to outline the border of the fibrotic scar area. Z-stack compositions were acquired in a motorized inverted widefield fluorescence microscope (Zeiss Cell Observer, Carl Zeiss MicroImaging) with 20× magnification. Fiji software was used to manually outline and calculate the PDGFRβ^+ area and total cross-sectional area to thereafter quantify the percentage of fibrotic scar area per total cross-sectional area. The rostral and caudal extents of fibrotic lesion were determined by inspection. […]

Take `CN1CCC[C@@H]1Cc1c[nH]c2ccc(CCS(=O)(=O)c3ccccc3)cc12` [Eletriptan Hbr, Eletriptan Hydrobromide]: the “spared white matter per total cross-sectional area” value in experiment [1] was “not significantly but consistently higher”. For the same molecule, in experiment [2], the “extension of PDGFRβ+ lesion core” value is given as “no statistically significant differences” and the “extension of increased levels of PDGFRβ+ immunostaining” value is given as “statistically significant reduction”. The “area of fibrotic lesion core” value in experiment [2] (at lesion epicentre) was “no statistically significant differences”.

The record behind these values is patent US12605362B2, “Eletriptan hydrobromide for treatment of spinal cord injury and improvement of locomotor function” (TECHNOPHAGE, INVESTIGAÇÃO E DESENVOLVIMENTO EM …, priority 2020, dated 2026).
